Assays:
DOCA hypertensive rats = assay: Antihypertension action (DOCA hypertensive rats); format: in vivo, rat (Wistar)
Procedure: Male Wistar rats, 10 weeks old, were subjected to left nephrectomy and 2 to 4 days after operation, deoxycorticosterone acetate was administered subcutaneously in a dose of 30 mg/ml/kg twice a week. The animals were given 1% saline for drinking water and the individuals showing a mean blood pressure of ≥150 mmHg at 15 weeks of age were submitted to the experiment. After catheterization, saline for drinking water was replaced with tap water. At the beginning of the experiment, the test rats had mean blood pressures from 152 to 204 mmHg, heart rates from 354 to 462 beats/min. and body weights from 232 to 318 g. 3~5 Animals per group were used.
3 Or 4 days before the beginning of the experiment, one end of a catheter for blood pressure measurement was passed from the femoral artery to the abdominal aorta of each rat and the other end was passed beneath the skin and fixed in exposed position in the dorsocervical region. The drug was orally administered once a day for 5 consecutive days. The rats had been deprived of food for about 3 hours before drug administration. The blood pressure was measured before administration and 5 hours after administration of days 1, 3 and 5. At each blood pressure measurement, the mean blood pressure was observed via a pressure transducer connected to the dorsocervical end of the catheter for blood pressure measurement and the stabilized mean blood pressure was recorded.
Drug was suspended and diluted using a 0.5% solution of methylcellulose and 5ml/kg of the suspension was orally administered.

[1] = test system: healthy male adult volunteers; assay: Diuretic action (human); format: in vivo; conditions: mean ± S.D.
Procedure: To healthy male adult volunteers, 300 mg (the capsule of Example 3 below ×1) (6 men) or 600 mg (the capsule of Example 3 below ×2) (6 men) of compound A was orally […] administered in fasting condition, or 600 mg (the capsule of Example 3 below×2) (6 men) of compound A was orally administered 30 minutes after breakfast. In each group, the 24-hr urine volume before administration and that on day 1 after administration were respectively determined.

[2] = test system: healthy male adult volunteers; assay: Antihypertensive action (human); format: in vivo; conditions: mean ± S.D.
Procedure: To 6 healthy male adult volunteers, 150 mg of compound A (one capsule each of capsules shown in Examples 1 and 2 below) was orally administered twice a day at a 12-hour interval from 30 minutes after breakfast to 2 hours after supper for 8 consecutive days (except on day 8 when the administration was made only once in the morning) and the systolic blood pressure in standing position was measured.

[3] = 3.2 mg/kg p.o. once a day, Day 1 before administration (baseline)
[4] = 3.2 mg/kg p.o. once a day, Day 3 after 5 hr
[5] = 3.2 mg/kg p.o. once a day, Day 3 before administration
[6] = 3.2 mg/kg p.o. once a day, Day 5 after 5 hr
[7] = 3.2 mg/kg p.o. once a day, Day 5 before administration
[8] = 10 mg/kg p.o. once a day, Day 1 after 5 hr
[9] = 10 mg/kg p.o. once a day, Day 1 before administration (baseline)
[10] = 10 mg/kg p.o. once a day, Day 3 after 5 hr
[11] = 10 mg/kg p.o. once a day, Day 3 before administration
[12] = 10 mg/kg p.o. once a day, Day 5 after 5 hr
[13] = 10 mg/kg p.o. once a day, Day 5 before administration
[14] = 32 mg/kg p.o. once a day, Day 1 after 5 hr
[15] = 32 mg/kg p.o. once a day, Day 1 before administration (baseline)
[16] = 32 mg/kg p.o. once a day, Day 3 after 5 hr
[17] = 32 mg/kg p.o. once a day, Day 3 before administration
[18] = 32 mg/kg p.o. once a day, Day 5 after 5 hr
[19] = 32 mg/kg p.o. once a day, Day 5 before administration

`O=C(O)Cn1c(=O)n(Cc2ccc(Br)cc2F)c(=O)c2ccc(Cl)cc21` [Compound A, 2-[7-Chloro-3-(4-bromo-2-fluorobenzyl)-1,2,3,4-tetrahydro-2,4-dioxoquinazolin-1-yl]acetic acid] was tested, and the Mean blood pressure (DOCA hypertensive rats; 3.2 mg/kg p.o. once a day, Day 1 after 5 hr) was 148 mm Hg, the Mean blood pressure (DOCA hypertensive rats; [3]) was 175 mm Hg and the “Percentage of change (mean blood pressure)” value (“Percentage of change” below) (DOCA hypertensive rats; [3]) was 0.0%. The Mean blood pressure (DOCA hypertensive rats; [4]) was 142 mm Hg, the “Percentage of change” value (DOCA hypertensive rats; [4]) was -18.6% and the Mean blood pressure (DOCA hypertensive rats; [5]) was 153 mm Hg. For the same molecule, the “Percentage of change” value (DOCA hypertensive rats; [5]) was -13.4%, the Mean blood pressure (DOCA hypertensive rats; [6]) was 131 mm Hg and the “Percentage of change” value (DOCA hypertensive rats; [6]) was -24.9%. For the same molecule, the Mean blood pressure (DOCA hypertensive rats; [7]) was 139 mm Hg, the “Percentage of change” value (DOCA hypertensive rats; [7]) was -21.0% and the Mean blood pressure (DOCA hypertensive rats; [8]) was 145 mm Hg. The “Percentage of change” value (DOCA hypertensive rats; [8]) was -13.0%, the Mean blood pressure (DOCA hypertensive rats; [9]) was 166 mm Hg and the “Percentage of change” value (DOCA hypertensive rats; [9]) was 0.0%. The Mean blood pressure (DOCA hypertensive rats; [10]) was 127 mm Hg, the “Percentage of change” value (DOCA hypertensive rats; [10]) was -23.1% and the Mean blood pressure (DOCA hypertensive rats; [11]) was 137 mm Hg. The “Percentage of change” value (DOCA hypertensive rats; [11]) was -17.2%, the Mean blood pressure (DOCA hypertensive rats; [12]) was 118 mm Hg and the “Percentage of change” value (DOCA hypertensive rats; [12]) was -29.1%. For the same molecule, the Mean blood pressure (DOCA hypertensive rats; [13]) was 127 mm Hg, the “Percentage of change” value (DOCA hypertensive rats; [13]) was -23.2% and the Mean blood pressure (DOCA hypertensive rats; [14]) was 133 mm Hg. For the same molecule, the “Percentage of change” value (DOCA hypertensive rats; [14]) was -20.1%, the Mean blood pressure (DOCA hypertensive rats; [15]) was 168 mm Hg and the “Percentage of change” value (DOCA hypertensive rats; [15]) was 0.0%. The Mean blood pressure (DOCA hypertensive rats; [16]) was 132 mm Hg, the “Percentage of change” value (DOCA hypertensive rats; [16]) was -20.1% and the Mean blood pressure (DOCA hypertensive rats; [17]) was 133 mm Hg. The “Percentage of change” value (DOCA hypertensive rats; [17]) was -19.2%, the Mean blood pressure (DOCA hypertensive rats; [18]) was 116 mm Hg and the “Percentage of change” value (DOCA hypertensive rats; [18]) was -30.2%. For the same molecule, the Mean blood pressure (DOCA hypertensive rats; [19]) was 117 mm Hg, the “Percentage of change” value (DOCA hypertensive rats; [19]) was -29.5% and the Urine volume ([1]; 300 mg p.o., without breakfast, 0-2 hr) was 95 ± 57 mL. For the same molecule, the Urine volume ([1]; 300 mg p.o., without breakfast, 2-4 hr) was 136 ± 60 mL, the Urine volume ([1]; 300 mg p.o., without breakfast, 4-8 hr) was 328 ± 55 mL and the Urine volume ([1]; 300 mg p.o., without breakfast, 8-12 hr) was 340 ± 79 mL. For the same molecule, the Urine volume ([1]; 300 mg p.o., without breakfast, 12-24 hr) was 609 ± 147 mL, the Urine volume ([1]; 300 mg p.o., without breakfast, -24-0 hr (before administration, baseline)) was 902 ± 256 mL and the Urine volume ([1]; 300 mg p.o., without breakfast, total 0-24 hr) was 1508 ± 274 mL. It also gave a Urine volume ([1]; 600 mg p.o., 30 min after breakfast, 0-2 hr) of 130 ± 46 mL, a Urine volume ([1]; 600 mg p.o., 30 min after breakfast, 2-4 hr) of 151 ± 19 mL and a Urine volume ([1]; 600 mg p.o., 30 min after breakfast, 4-8 hr) of 414 ± 161 mL. It also gave a Urine volume ([1]; 600 mg p.o., 30 min after breakfast, 8-12 hr) of 507 ± 139 mL, a Urine volume ([1]; 600 mg p.o., 30 min after breakfast, 12-24 hr) of 829 ± 240 mL and a Urine volume ([1]; 600 mg p.o., 30 min after breakfast, -24-0 hr (before administration, baseline)) of 1234 ± 212 mL. The Urine volume ([1]; 600 mg p.o., 30 min after breakfast, total 0-24 hr) was 2031 ± 362 mL, the Urine volume ([1]; 600 mg p.o., without breakfast, 0-2 hr) was 64 ± 24 mL and the Urine volume ([1]; 600 mg p.o., without breakfast, 2-4 hr) was 82 ± 32 mL. It also gave a Urine volume ([1]; 600 mg p.o., without breakfast, 4-8 hr) of 292 ± 50 mL, a Urine volume ([1]; 600 mg p.o., without breakfast, 8-12 hr) of 393 ± 141 mL and a Urine volume ([1]; 600 mg p.o., without breakfast, 12-24 hr) of 863 ± 253 mL. For the same molecule, the Urine volume ([1]; 600 mg p.o., without breakfast, -24-0 hr (before administration, baseline)) was 982 ± 293 mL, the Urine volume ([1]; 600 mg p.o., without breakfast, total 0-24 hr) was 1693 ± 368 mL and the “Systolic blood pressure in standing position” value (from here on “Systolic blood pressure”) ([2]; 150 mg p.o. twice a day for 8 days, Day 9 immediately before breakfast) was 113 ± 3 mmHg. For the same molecule, the “Systolic blood pressure” value ([2]; 150 mg p.o. twice a day for 8 days, Day 10 immediately before breakfast) was 117 ± 6 mmHg, the “Systolic blood pressure” value ([2]; 150 mg p.o. twice a day, Day 1 immediately before breakfast (before first dose, baseline)) was 121 ± 8 mmHg and the “Systolic blood pressure” value ([2]; 150 mg p.o. twice a day, Day 2 immediately before breakfast) was 113 ± 6 mmHg. For the same molecule, the “Systolic blood pressure” value ([2]; 150 mg p.o. twice a day, Day 3 immediately before breakfast) was 114 ± 7 mmHg, the “Systolic blood pressure” value ([2]; 150 mg p.o. twice a day, Day 4 immediately before breakfast) was 114 ± 5 mmHg and the “Systolic blood pressure” value ([2]; 150 mg p.o. twice a day, Day 5 immediately before breakfast) was 110 ± 8 mmHg. The “Systolic blood pressure” value ([2]; 150 mg p.o. twice a day, Day 6 immediately before breakfast) was 114 ± 6 mmHg, the “Systolic blood pressure” value ([2]; 150 mg p.o. twice a day, Day 7 immediately before breakfast) was 116 ± 8 mmHg and the “Systolic blood pressure” value ([2]; 150 mg p.o. twice a day, Day 8 immediately before breakfast) was 117 ± 5 mmHg.
